Where “and” joins values, the source holds several entries; their conditions need not be identical. Equal values may be shown once.
How the values were obtained:
Type in all cases: cell-based, human
[1] = tested on: HEK293-TLR2 cells; test: CXCL8 expression in HEK-TLR2 cells (qRT-PCR); conditions: 5 h, two technical replicates, Fig 2b
Experimental: (§1) Fig. 2 Induction of chemokine (C-X-C motif) ligand 8/macrophage inflammatory protein-2 (CXCL8/MIP-2) by lugdunin is TLR2/MyD88-dependent. a HEK-control or HEK-TLR2 cells were treated with 2 μM lugdunin for 5 h and subsequently the CXCL8 concentration in the supernatant was analyzed by LEGENDplex^TM (BioLegend). Shown is one representative experiment of three independent experiments with two technical replicates ± s.e.m. b HEK-control or HEK-TLR2 cells were treated with increasing concentrations of lugdunin for 5 h and subsequently expression of CXCL8 was analyzed and normalized to actin. Shown is one representative experiment of three independent experiments with two technical replicates ± s.e.m. c Schematic overview of the mouse experiments: 6–8-week-old female C5BL/6 WT, MyD88-knockout (ko), or 5xTLR-ko mice were epicutaneously treated with 1.5 µg lugdunin or phosphate-buffered saline (PBS) as a control. After 24 h, mice were euthanized, 4 mm skin punches were taken, and further cultured in vitro for 10 h followed by cytokine analysis of the culture supernatant by LEGENDplex^TM (BioLegend). d, e Shown are the mean concentrations of IL-1α (d) or MIP-2 (e) in the skin culture supernatant of two skin punches from four mice each ± s.e.m. Significant differences to control treatments were analyzed by an unpaired two-tailed t test (*P < 0.05; **P < 0.01; ***P < 0.001). f Representative MIP-2-stained paraffin-embedded mouse skin sections. Scale bar, 100 µM. Source data are provided as a Source Data file
Quantitative reverse transcription-polymerase chain reaction (qRT-PCR) was performed in 10 µL reaction volume with SYBR^TM Green PCR Master Mix (Thermo Fisher) according to the manufacturer’s instructions using a LightCycler 96 (Roche Life Science). The initial denaturation step was at 95 °C for 5 min, followed by 40 cycles with 10 s each for the denaturation step at 95 °C, the annealing at individual temperature, and the elongation at 72 °C. Primer sequences and respective annealing temperatures are listed in Supplementary Table 1. […]

[2] = tested on: HEK293-TLR2 cells; test: CXCL8 release by HEK-TLR2 cells (LEGENDplex)
Experimental: as §1, with “After 24 h, mice were euthanized, 4 mm skin punches were taken, and further cultured in vitro for 10 h followed by cytokine analysis of the culture supernatant by LEGENDplex^TM (BioLegend). d, e Shown are the mean concentrations of IL-1α (d) or MIP-2 (e) in the skin culture supernatant of two skin punches from four mice each ± s.e.m.” left out, “Scale bar, 100 µM. Source data are provided as a Source Data file” left out
Supplementary Figure 2: CXCL8 controls and other cytokines in mouse skin 46 a: HEK-control cells or HEK -TLR2 cells were treated with 100 ng/mL Pam2Cys for 5 47 hours and subsequently the CXCL8 concentration in the supernatant was analyzed. […]

[3] = tested on: PBMCs; test: CXCL8 expression in PBMCs (qRT-PCR); conditions: 5 h, two technical replicates
Experimental: Quantitative reverse transcription-polymerase chain reaction (qRT-PCR) was performed in 10 µL reaction volume with SYBR^TM Green PCR Master Mix (Thermo Fisher) according to the manufacturer’s instructions using a LightCycler 96 (Roche Life Science). The initial denaturation step was at 95 °C for 5 min, followed by 40 cycles with 10 s each for the denaturation step at 95 °C, the annealing at individual temperature, and the elongation at 72 °C. Primer sequences and respective annealing temperatures are listed in Supplementary Table 1.
Human PBMCs were isolated from the peripheral blood of healthy donors upon obtaining informed consent by Ficoll-Histopaque (Biochrom) gradient centrifugation. Cells were washed once in PBS and adjusted to a cell number of 1 × 10^6 mL^−1 in RPMI-1640 medium (Gibco/Life Technologies) containing 10% FBS (Biochrom/Merck Millipore). […]
31 g+h+i: HNEpCs (b), HTEpCs (c) or PBMCs (d) were treated with increasing
32 concentrations of lugdunin (grey bars) or 100 ng/mL Pam2Cys or Pam3Cys (white
33 bars) as positive controls for 5 hours and subsequently expression of CXCL8 was
34 analyzed and normalized to actin. Black bar: medium control. Shown is one
35 representative experiment of three independent experiments with two technical
36 replicates +/-s.e.m. Significant differences to control treatments were analyzed by
37 ordinary one-way ANOVA followed by Dunnett’s multiple comparisons test (*P<0.05; […]

Lugdunin
CXCL8 expression normalized to actin ([1]; HEK-TLR2, lugdunin 0.5 µM, medium = 1): 2.676 and 2.042 | CXCL8 expression normalized to actin ([1]; HEK-TLR2, lugdunin 1 µM): 1.404 and 1.257 | CXCL8 expression normalized to actin ([1]; HEK-TLR2, lugdunin 2 µM): 3.918 and 4.112 | CXCL8 expression normalized to actin ([1]; HEK-TLR2, lugdunin 3 µM): 4.408 and 3.864 | CXCL8 expression normalized to actin ([1]; HEK-TLR2, lugdunin 5 µM): 6.364 and 6.916 | CXCL8 expression normalized to actin ([1]; HEK-TLR2, lugdunin 10 µM): 9.415 and 10.232 | CXCL8 concentration in supernatant ([2]; HEK-TLR2 cells, lugdunin 2 µM, 5 h, two technical replicates, Fig 2a): 564.521 and 585.121 | CXCL8 induction level in HEK-TLR2 cells, times lower than Pam2Cys/Pam3Cys-mediated TLR2 activation ([2]; text to Fig 2a and Supp Fig 2): 1000 fold | CXCL8 fold induction ([3]; lugdunin 0.5 µM, sheet Supp Fig 1h): 0.8179 and 0.8236 | CXCL8 fold induction ([3]; lugdunin 1 µM): 1.223 and 1.275 | CXCL8 fold induction ([3]; lugdunin 2 µM): 2.085 and 1.84 | CXCL8 fold induction ([3]; lugdunin 3 µM): 2.121 and 2.305 | CXCL8 fold induction ([3]; lugdunin 5 µM): 3.021 and 3.221 | CXCL8 fold induction ([3]; lugdunin 10 µM): 3.494 and 3.593
